Test results as given in ChEMBL document CHEMBL6177955, “Design, synthesis and biological evaluation of Golgi-targeting anion transporters as inducers of Golgiphagy and apoptosis in cancer cells” (Eur J Med Chem, 2025).
The source made the active and inactive calls. The rule behind the calls is not given here.

How the values were obtained:
Lipid bilayer [1] = experiment: Vesicular anionophoric activity in large unilamellar vesicle membrane derived from egg-yolk L-alpha-phosphatidylcholine assessed as induction of relative efflux of chloride ions measured up to 300 seconds by using chloride-selective electrode
Lipid bilayer [2] = experiment: Vesicular anionophoric activity in large unilamellar vesicle membrane derived from egg-yolk L-alpha-phosphatidylcholine assessed as induction of relative efflux of chloride ions in presence of potassium (K+) measured up to 300 seconds by using chloride-selective electrode; details: time <= 300.0 sec
Lipid bilayer [3] = experiment: Vesicular anionophoric activity in large unilamellar vesicle membrane derived from egg-yolk L-alpha-phosphatidylcholine assessed as induction of relative efflux of chloride ions in presence of cesium (Cs+) measured up to 300 seconds by using chloride-selective electrode; details: time <= 300.0 sec
A2780 = experiment: Antiproliferative activity against human A2780 cells by MTT assay; format: functional, cell-based
HepG2 [4] = experiment: Induction of chloride ion influx in human HepG2 cells assessed as increase in intracellular chloride anions at 5 to 20 uM measured after 12 hrs incubation by chloride-sensitive dye MQAE-based CLSM imaging analysis; format: functional, cell-based; details: dose 5-20 µM
HepG2 [5] = experiment: Induction of chloride ion influx in human HepG2 cells assessed as effect on lysosomal chloride anions at 5 to 20 uM measured after 12 hrs incubation by chloride-sensitive dye MQAE-MP based CLSM imaging analysis; format: functional, cell-based; details: dose 5-20 µM
HepG2 [6] = experiment: Disruption of homeostasis of chloride anions in golgi apparatus of human HepG2 cells assessed as increase in fluorescence intensity of 6-methoxy-1-(2-oxo-2-((4-sulfamoylphenyl)amino)ethyl)quinolin-1-ium Bromide measured after 12 hts by CLSM imaging analysis; format: functional, cell-based
HepG2 [7] = experiment: Effect on dysregulation mediated autophagy in human HepG2 cells assessed as increase in p62 marker expression at 5 to 20 uM measured after 48 hrs incubation by Western blot analysis; format: functional, cell-based; details: dose 5-20 µM
HepG2 [8] = experiment: Effect on dysregulation mediated autophagy in human HepG2 cells assessed as increase in LC3B marker expression at 5 to 20 uM measured after 48 hrs incubation by Western blot analysis; format: functional, cell-based; details: dose 5-20 µM
HepG2 [9] = experiment: Induction of autophagosome formation in human HepG2 cells assessed as green fluorescence in mitochondria by measuring pearson co-localization at 10 uM measured after 12 hrs incubation by mCherry-LC3B assay; format: functional
HepG2 [10] = experiment: Induction of autophagosome formation in human HepG2 cells assessed as green fluorescence in lysosomes by measuring pearson co-localization at 10 uM measured after 12 hrs incubation by mCherry-LC3B assay; format: functional
HepG2 [11] = experiment: Induction of apoptosis in human HepG2 cells assessed as early apoptotic cells at 5 uM measured after 24 hrs incubation by Propidium iodide/Annexin V-FITC analysis (reference value: 2.90%); format: functional
HepG2 [12] = experiment: Induction of apoptosis in human HepG2 cells assessed as necrotic cells at 5 uM measured after 24 hrs incubation by Propidium iodide/Annexin V-FITC analysis (reference value: 1.14%); format: functional
HepG2 [13] = experiment: Induction of apoptosis in human HepG2 cells assessed as viable cells at 10 uM measured after 24 hrs incubation by Propidium iodide/Annexin V-FITC analysis (reference value: 90.2%); format: functional; details: read-out: Activity
HepG2 [14] = experiment: Induction of apoptosis in human HepG2 cells assessed as late apoptotic cells at 10 uM measured after 24 hrs incubation by Propidium iodide/Annexin V-FITC analysis (reference value: 5.71%); format: functional
HepG2 [15] = experiment: Induction of apoptosis in human HepG2 cells assessed as late apoptotic cells at 20 uM measured after 24 hrs incubation by Propidium iodide/Annexin V-FITC analysis (reference value: 5.71%); format: functional
HepG2 [16] = experiment: Induction of apoptosis in human HepG2 cells assessed as necrotic cells at 20 uM measured after 24 hrs incubation by Propidium iodide/Annexin V-FITC analysis (reference value: 1.14%); format: functional
[17] = Toxicity in mouse xenografted with human HepG2 cells assessed as body weight change at 5 to 10 mg/kg, ip administered once every 2 days for 21 days; format: organism-based; details: in vivo, 504 h, dose 5-10 mg/kg, time 21 day
[18] = Toxicity in mouse xenografted with human HepG2 cells assessed as histopathological changes in heart at 5 to 10 mg/kg, ip administered once every 2 days for 21 days by H and E staining based analysis; format: organism-based; details: in vivo, 504 h, dose 5-10 mg/kg, time 21 day
[19] = Toxicity in mouse xenografted with human HepG2 cells assessed as histopathological changes in liver at 5 to 10 mg/kg, ip administered once every 2 days for 21 days by H and E staining based analysis; format: organism-based; details: in vivo, 504 h, dose 5-10 mg/kg, time 21 day
HepG2 [20] = experiment: Antitumor activity against human HepG2 cells xenografted mouse model assessed as reduction Golgi-associated apoptotic proteins (GAAPs) expression in tumor tissue at 5 to 10 mg/kg, ip administered once every 2 days for 21 days; format: functional, organism-based; details: dose 5-10 mg/kg, time 21.0 day
[21] = Toxicity in mouse xenografted with human HepG2 cells assessed as histopathological changes in spleen at 5 to 10 mg/kg, ip administered once every 2 days for 21 days by H and E staining based analysis; format: organism-based; details: in vivo, 504 h, dose 5-10 mg/kg, time 21 day
[22] = Toxicity in mouse xenografted with human HepG2 cells assessed as blood urea nitrogen (BUN) at 5 to 10 mg/kg, ip administered once every 2 days for 21 days; format: organism-based; details: in vivo, 504 h, dose 5-10 mg/kg, time 21 day

Compound: NS(=O)(=O)c1ccc(NC(=O)CCCCCNc2c(Nc3cc(C(F)(F)F)cc(C(F)(F)F)c3)c(=O)c2=O)cc1
- EC50 (Lipid bilayer [1]): 1.53 mol%
- Activity (Lipid bilayer [2]): Active
- Activity (Lipid bilayer [3]): Active
- IC50 (A2780): > 50 µM
- Activity (HepG2 [4]): Active
- Activity (HepG2 [5]): inactive
- EC50 (HepG2 [6]): 13.8 µM
- Activity (HepG2 [7]): Active
- Activity (HepG2 [8]): Active
- Activity (HepG2 [9]): 0.23
- Activity (HepG2 [10]): 0.58
- Activity (HepG2 [11]): 12%
- Activity (HepG2 [12]): 1.64%
- viability at 10 µM (HepG2 [13]): 50%
- Activity (HepG2 [14]): 24.6%
- Activity (HepG2 [15]): 36.5%
- Activity (HepG2 [16]): 7.19%
- Activity [17]: Non-toxic
- Activity [18]: Non-toxic
- Activity [19]: Non-toxic
- Activity (HepG2 [20]): Active
- Activity [21]: Non-toxic
- Activity [22]: Non-toxic
